Measurements: patent US10406227B2, “Photoactivated molecules for light-induced modulation of the activity of electrically excitable cells and methods of using same” (University of Southern California, priority 2012, dated 2019)
“Also recorded” adds a separate entry of the source.

Tests used:
INS cells = assay: Whole cell patch clamp, current-clamp membrane potential under blue light; type: cell-based, rat; conditions: for light-induced increase in membrane potential (depolarization): 10 μM ~2 min preincubation, 488 nm
Description: (§1) Membrane potential was monitored using whole cell patch clamp in current-clamp mode. Cultured cells (INS and HEK293) were plated on a glass-bottomed culture dishes 1-3 days prior to recording. Cells were incubated in standard extracellular solution with or without 10 μM RubpyC17 compound for approximately 1.5-2 minutes, then washed and incubated with standard extracellular solution without additional supplementation, or with 2-5 mM ascorbate, 100 μM sodium ferrocyanide, or 100-200 μM potassium ferricyanide, as indicated. The chamber was transferred to the microscope stage. Extracellular solution consisted of 140 mM NaCl, 2.8 mM KCl, 10 mM HEPES, 1 mM MgCl2, 2 mM CaCl2, 10 mM glucose, pH adjusted to 7.3, and osmolarity adjusted to 300-310. Conventional whole-cell patch clamp recordings were performed with an EPC-9 amplifier and Pulse software (HEKA Electronics). Pipette electrodes of 1.8-3.5 Mohm were fire polished before use. Intracellular solution consisted of: 145 mM KCl, 10 mM NaCl, 1 mM MgCl2, 1 mM EGTA, 2 mM ATP, 0.3 mM GTP and 10 mM HEPES, pH adjusted to 7.3 and osmolarity adjusted to 290-300 mOsm. To monitor changes in membrane voltage/potential, cells were patch clamped in current-clamp mode. Access resistances were in the range of 3-8 Mohm. Using Pulse, membrane potentials were recorded before, during and after illumination by the argon ion laser at 488 nm with an irradiance value of 0.458 mE s^−1 m^−2 or by a xenon lamp source through a 470/40 nm bandpass excitation filter with an irradiance value of 0.480 mE s^−1 m^−2. […]
(§2) Initial attempts were tied to INS and HEK cells, both cells that are not excitable under normal conditions (INS cells were maintained in low glucose <3 mM to prevent action potentials). […] To monitor the plasma membrane potential, the cells were patch-clamped in whole-cell configuration in current-clamp mode and membrane voltages were recorded while illuminating the cell at 488 nm (0.46-0.48 mE s^−1 m^−2), though other wavelengths are useful, depending on the embodiment.

HEK293T cells = assay: as above; type: cell-based, human
Description: as §1, §2

chromaffin cells = assay: Voltage-clamp current-voltage relationship and steady-state activation before and during light; type: cell-based, mouse; conditions: before vs during light illumination
Excerpt: FIGS. 5A-5H depict data from various experiments related to characteristics of RubpyC17-loaded cells. […] Inset images shown to the right of trace confirmed proper integration of RubpyC17 in patched cells. FIGS. 5C-5E show the light-induced action potential firing in chromaffin cells was not due to biophysical changes in voltage-gated ion channels as there were no significant changes in current-voltage relationships (C-D) nor in steady-state activation curve (E) in RubpyC17-loaded chromaffin cells before (open circle) or during ([…]) light illumination. […] Peak inward currents from each stimulation jump were plotted against corresponding stimulating voltages (n=6). […] Data from representative cell is shown (n=5). […] Currents resulting from capacitor-like behavior of chromaffin cell membranes during hyperpolarizing jumps to −85 mV from a resting membrane potential of −80 mV were recorded 5 min following giga-seal formation for amphoterecin B (bottom trace) or 10 min following giga-seal formation for RubpyC17 (top trace).
To examine whether light-activated RubpyC17 can directly interact and open or block endogenous ion channels, HEK293T cells were preincubated with RubpyC17, and patch-clamped in a voltage-clamp configuration. Voltage-clamp configuration allowed the cells to be clamped at a potential where most voltage-gated ion channels are closed (approximately −80 mV). […]

[1] = tested on: mouse adrenal chromaffin cells; assay: Perforated patch clamp action potential recording; type: cell-based
Description: Action potentials in chromaffin cells were monitored using perforated patch clamp electrophysiology in current-clamp mode, using an EPC10 amplifier and Pulsemaster data acquisition software (HEKA electronics). A coverslip containing mouse chromaffin cells was transferred to a recording chamber and perfused with extracellular solution. Extracellular solution consists of 140 mM NaCl, 2.8 mM KCl, 10 mM HEPES, 1 mM MgCl2, 2 mM CaCl2, 10 mM glucose, pH adjusted to 7.3, and osmolarity adjusted to 290-300 mOsm. Intracellular solution consisted of 145 mM KCl, 10 mM NaCl, 1 mM MgCl2, and 10 mM HEPES, pH adjusted to 7.3 and osmolarity adjusted to 290-300 mOsm. Perforation solution was prepared by adding 4.5 μl of 125 mg/ml stock of amphoterecin B (Sigma) in DMSO to 1.8 mls of intracellular solution, and homogenizing for 5-10 s. Perforation was achieved within 3-10 min following gigaseal formation. Series resistances were in the range of 8-22 Mohm. Light stimulation in the blue spectrum originated from a xenon lamp source with an irradiance value of 0.480 mE s^−1 m^−2 through a 470/40 nm bandpass excitation filter. The duration of illumination varied and is indicated by bars on figures.
The behavior of excitable cells (cells capable of firing action potentials) treated with RubpyC17 was next investigated. Perforated patch clamp recording was performed on mouse adrenal chromaffin cells pretreated with 450-900 nM RubpyC17 for 15-30 minutes before beginning electrophysiological recordings. […] A slow, gradual reversal, on the order of seconds after light illumination was terminated (FIG. 3A), was observed.

RCS rats [2] = assay: Pupillary light reflex after intravitreal injection; type: in vivo, rat
Excerpt: FIG. 16 depicts the papillary light response in RCS rats.
(§3) This finding was reproduced in 3 of 3 RCS rats injected with Rubpy-C17, and in 2 of 2 control (sham injection) RCS rats.

RCS rats [3] = assay: Retina histology / pathology after intravitreal injection; type: in vivo, rat
Excerpt: as §3

In the case of [Ru(bpy)2(bpy-C17)](PF6)2 [RubpyC17], the “light-induced increase in membrane potential (depolarization)” value (INS cells; 2 mM ascorbate) is reported as 15.9 ± 4.6 mV, the “light-induced increase in membrane potential (depolarization)” value (INS cells; absence of ascorbate) is reported as 9.8 ± 4.5 mV and the “light-triggered depolarization with non-permeating ions” value (INS cells; NMDG for sodium, cesium for potassium, ascorbate present) is reported as “still persisted”. For the same substance, the light-induced depolarization (HEK293T cells; 10 μM ~2 min preincubation, 2 mM ascorbate, 488 nm) was 14.6 ± 2.4 mV, the light-induced hyperpolarization (HEK293T cells; 100 uM ferricyanide in extracellular solution) was 20.9 ± 4.9 mV and the “light-induced depolarization with ferrocyanide as reductant” value (HEK293T cells; 0.1 mM ferrocyanide) was “light-induced depolarization was also observed”. For the same substance, the “effect on biophysical properties of endogenous ion channels (I-V, steady-state activation)” value (chromaffin cells) was “does not alter the biophysical properties of endogenous ion channels”, the “effect of light on action potential firing” value (from here on “effect of light”) ([1]; 900 nM RubpyC17 pretreatment, 5 mM ascorbate) was “triggered action potentials or increased the rate of action potential firing” and the “action potential firing rate, single cell, ascorbate changed for ferricyanide” value ([1]; 2 μM RubpyC17 for 1.5 min) was “light-induced increase and then light-induced decrease”. For the same substance, the “effect of light” value ([1]; 100 μM ferricyanide) was “decreased the rate of action potential firing”, the “action potential waveform shape” value ([1]; before vs during light illumination) was “no change in the shape of action potential waveforms” and the “effect of light” value ([1]; ferricyanide increased from 100 to 200 μM) was “further suppressed action potential firing”. The “pupillary light reflex time” value (RCS rats [2]; injected eye) was under 3 s, the pupillary light reflex (RCS rats [2]; injected eye vs non-injected eye) was “vigorous pupillary light reflex was observed; also recorded: pupil constricts” and the “histology of the retina” value (RCS rats [3]; 3 days after injection, preliminary) was “no evidence of retinal cell death or white blood cell infiltrates”. For the same substance, the initial pathology studies (RCS rats [3]; eyes injected with Rubpy-C17) was “absence of obvious signs of deleterious effects”.
